Measured values reported in patent US20190055563A1, “POLYMERASE Q AS A TARGET IN HR-DEFICIENT CANCERS” (DANA-FARBER CANCER INSTITUTE, INC., priority 2015, published 2019).
Values belong to the molecule of their own block, whether it stands above or below them.

Legend:
A2780-shFANCD2 cells = assay: Clonogenic survival of HR-deficient cells with POLQ depletion; type: cell-based, human; conditions: A2780-shFANCD2 with shRNA targeting POLQ
Procedure: (§1) For assessing cellular cytotoxicity, cells were seeded into 96-well plates at a density of 1000 cells/well. Cytotoxic drugs were serially diluted in media and added to the wells. At 72 hours, CellTiter-Glo reagent (Promega) was added to the wells and the plates were scanned using a luminescence microplate reader. Survival at each drug concentration was plotted as a percentage of the survival in drug-free media. Each data point on the graph represents the average of three measurements, and the error bars represent the standard deviation. For clonogenic survival, 1000 cells/well were seeded into six-well plates and treated with cytotoxic drugs the next day. For MMC and PARPi, cells were treated continuously with indicated drug concentrations. For CDDP, cells were treated for 24 hours and cultured for 14 days in drug-free media. Colony formation was scored 14 days after treatment using 0.5% (w/v) crystal violet in methanol. Survival curves were expressed as a percentage ±s.e.m. over three independent experiments of colonies formed relative to the DMSO-treated control.

293T cells = assay: 3-day survival assay with POLQ siRNA; type: cell-based, human
Procedure: as §1

[1] = target: recombinant human GST-RAD51 (UniProt Q06609)
A2780 cells = assay: 3-day survival assay with POLQ inhibition; type: cell-based, human; conditions: 3 days of continuous exposure to ATM inhibitor
Procedure: as §1

[2] = target: T1, Flag-tagged POLQ-1633-Cter (human, UniProt O75417 1633-2590); assay: anti-Flag co-immunoprecipitation from HeLa cells, immunoblot
T1 construct: range 1633-Cter; Stably expressed in HeLa cells; not shown: Flag tag
T1 sequence (looked up): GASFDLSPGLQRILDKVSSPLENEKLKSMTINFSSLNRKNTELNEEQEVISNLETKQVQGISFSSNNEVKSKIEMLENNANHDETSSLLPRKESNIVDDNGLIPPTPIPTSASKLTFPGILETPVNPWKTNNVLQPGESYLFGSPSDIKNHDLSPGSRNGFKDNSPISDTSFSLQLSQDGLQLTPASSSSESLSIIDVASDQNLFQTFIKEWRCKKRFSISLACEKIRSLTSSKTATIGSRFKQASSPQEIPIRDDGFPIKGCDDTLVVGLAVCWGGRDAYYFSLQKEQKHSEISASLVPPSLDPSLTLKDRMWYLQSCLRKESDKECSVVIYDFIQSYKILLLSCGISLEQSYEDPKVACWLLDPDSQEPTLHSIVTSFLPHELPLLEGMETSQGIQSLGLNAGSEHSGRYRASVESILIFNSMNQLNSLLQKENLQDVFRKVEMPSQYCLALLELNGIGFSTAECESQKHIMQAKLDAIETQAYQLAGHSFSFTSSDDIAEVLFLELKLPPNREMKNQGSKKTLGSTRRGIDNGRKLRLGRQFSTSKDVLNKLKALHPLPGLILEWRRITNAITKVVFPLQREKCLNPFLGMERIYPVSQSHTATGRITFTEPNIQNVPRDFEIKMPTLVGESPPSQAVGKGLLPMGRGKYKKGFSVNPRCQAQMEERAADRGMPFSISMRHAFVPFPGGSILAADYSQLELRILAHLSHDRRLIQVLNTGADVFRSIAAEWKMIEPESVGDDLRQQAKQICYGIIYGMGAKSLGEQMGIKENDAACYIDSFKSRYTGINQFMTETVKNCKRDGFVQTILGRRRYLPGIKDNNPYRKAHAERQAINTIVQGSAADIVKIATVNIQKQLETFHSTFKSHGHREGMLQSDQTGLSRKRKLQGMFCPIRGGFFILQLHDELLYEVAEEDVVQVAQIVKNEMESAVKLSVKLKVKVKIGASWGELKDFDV

Molecule: CO[C@@]12[C@H](COC(N)=O)C3=C(C(=O)C(C)=C(N)C3=O)N1C[C@@H]1N[C@@H]12 [MMC, Mitomycin C]
survival of HR-deficient cells exposed to drug, effect of POLQ depletion (A2780-shFANCD2 cells): reduced the survival
cellular sensitivity to drug after depletion of POLQ (293T cells): hypersensitivity

Molecule: purified recombinant POLQ fragment ΔPol2 (amino acids 1 to 1000), wild-type
RAD51-ssDNA nucleofilament assembly [1]: RAD51-ssDNA assembly was reduced by wild-type ΔPol2

Molecule: O=c1cc(-c2cccc3c2Sc2ccccc2S3)oc(N2CCOCC2)c1 [Ku55933]
survival of A2780 cells, effect of POLQ inhibition (A2780 cells): reduces the survival

Molecule: N.N.[Cl][Pt][Cl] [CDDP, cis-diamminedichloroplatinum(II)]
survival of HR-deficient cells exposed to drug, effect of POLQ depletion (A2780-shFANCD2 cells): reduced the survival

binding result [2]: no binding
B1: endogenous RAD51 (other, UniProt Q06609 2-339, looked up)
chain: AMQMQLEANADTSVEEESFGPQPISRLEQCGINANDVKKLEEAGFHTVEAVAYAPKKELINIKGISEAKADKILAEAAKLVPMGFTTATEFHQRRSEIIQITTGSKELDKLLQGGIETGSITEMFGEFRTGKTQICHTLAVTCQLPIDRGGGEGKAMYIDTEGTFRPERLLAVAERYGLSGSDVLDNVAYARAFNTDHQTQLLYQASAMMVESRYALLIVDSATALYRTDYSGRGELSARQMHLARFLRMLLRLADEFGVAVVITNQVVAQVDGAAMFAADPKKPIGGNIIAHASTTRLYLRKGRGETRICKIYDSPCLPEAEAMFAINADGVGDAKD
notes: Endogenous protein in cell lysates
